Results reported in patent publication US20240287138A1, “CYCLIC PEPTIDES FOR INHIBITING TNF RECEPTOR 1 ACTIVITY” (Merck Sharp & Dohme LLC, priority 2023, published 2024).
Numbered stars: 1 amine (or outer) side, 2 acyl side, 3 side chain; on linkers, the order of the positions; unused ones are H or OH. Bridge positions count the residues as written; N and C are the ends. Square brackets hold non-standard residues; d marks the D form. Peptide text beside a SMILES is read from it. Trp(βS-Me,7-OMe) = COc1cccc2c([C@H](C)[C@H](N)C(=O)O)c[nH]c12; Phe(3R-OH) = O=C([C@@H](N[*:1])[C@H](O[*:3])c1ccccc1)[*:2]; cBu(1-CO,cis-3-CH2NH) = O=C([C@H]1C[C@@H](CN[*:1])C1)[*:2]; Trp(4-Cl) = N[C@@H](Cc1c[nH]c2cccc(Cl)c12)C(=O)O; Trp(7-Cl) = N[C@@H](Cc1c[nH]c2c(Cl)cccc12)C(=O)O; Phe(4-CONH2) = NC(=O)c1ccc(C[C@H](N)C(=O)O)cc1; Phe(4-COOH) = N[C@@H](Cc1ccc(C(=O)O)cc1)C(=O)O; Trp(7-F) = N[C@@H](Cc1c[nH]c2c(F)cccc12)C(=O)O; Trp(7-aza) = N[C@@H](Cc1c[nH]c2ncccc12)C(=O)O; X10 = O=C([C@H](Cc1ccnc2ccccc12)N[*:1])[*:2]; X2 = C[C@@H]1CC[C@@H](C(=O)[*:2])N([*:1])C1; Pip(5R-OH) = O=C(O)[C@@H]1CC[C@@H](O)CN1; X13 = O=C([C@H]1CC[C@@H](N[*:1])C1)[*:2]; X1 = O=C([C@@H]1CC[C@H](N[*:1])C1)[*:2]; dPro(4,4-F2) = O=C(O)[C@H]1CC(F)(F)CN1; d(cisHyp) = O=C(O)[C@H]1C[C@@H](O)CN1; Pip(4-aza) = O=C(O)[C@@H]1CNCCN1; hPhe = N[C@@H](CCc1ccccc1)C(=O)O; 4Pal = N[C@@H](Cc1ccncc1)C(=O)O; NMeE = CN[C@@H](CCC(=O)O)C(=O)O; Cit = NC(=O)NCCC[C@H](N)C(=O)O; αMeS = C[C@](N)(CO)C(=O)O; NMeA = CN[C@@H](C)C(=O)O; Nle = CCCC[C@H](N)C(=O)O; Sar = CNCC(=O)O

Tests used:
[1] = molecular target: T1, human TNFR1 extracellular domain (ECD) protein (Homo sapiens, UniProt P19438); experiment: SPR binding affinity to captured human TNFR1 ECD
T1 construct: HRV 3C protease cleavage site (C); 6His (C, cleaved yes); made in house; host or cells: Sf21 insect cells (baculovirus), secreted
T1 sequence (P19438 30-211): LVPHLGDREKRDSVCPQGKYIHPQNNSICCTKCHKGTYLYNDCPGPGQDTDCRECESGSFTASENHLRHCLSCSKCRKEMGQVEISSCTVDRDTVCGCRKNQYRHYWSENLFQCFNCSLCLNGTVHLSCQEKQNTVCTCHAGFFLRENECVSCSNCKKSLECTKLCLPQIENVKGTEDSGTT
Method in brief: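 Read-out: kon, koff and derived affinity from SPR response units. Human TNFR1 and TNFR2 ECD, Avi-tag biotinylated with BirA, captured on a streptavidin surface; peptides injected under laminar flow in HEPES-saline with EDTA, P20 and 2% DMSO.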

[2] = molecular target: T2, TNFα-induced NF-κB signal transduction pathway (TNFR1 signaling) in THP-1 cells (Homo sapiens, UniProt P19438); experiment: THP-1 Lucia NF-κB reporter cell assay, inhibition of TNFα-induced NF-κB signaling; assay type: cell-based; settings: THP-1 NF-κB Lucia reporter cells, 10 ng/mL TNFα, 16-18 h, secreted luciferase; read-out: THP-1 IC50
T2 sequence (P19438 30-455): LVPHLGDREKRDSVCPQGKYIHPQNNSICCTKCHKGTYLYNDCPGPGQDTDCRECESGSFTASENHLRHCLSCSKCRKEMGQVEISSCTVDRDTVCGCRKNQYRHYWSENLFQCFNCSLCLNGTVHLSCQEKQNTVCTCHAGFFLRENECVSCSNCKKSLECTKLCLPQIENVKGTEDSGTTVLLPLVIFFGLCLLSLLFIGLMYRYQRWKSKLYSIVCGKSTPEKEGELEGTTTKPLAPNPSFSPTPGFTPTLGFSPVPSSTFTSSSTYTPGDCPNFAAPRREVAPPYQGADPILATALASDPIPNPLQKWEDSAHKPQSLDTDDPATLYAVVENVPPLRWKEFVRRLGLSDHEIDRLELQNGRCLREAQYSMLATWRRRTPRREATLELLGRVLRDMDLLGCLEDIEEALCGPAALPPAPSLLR
Method in brief: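 Macrocyclic peptides were preincubated 1 h at 37 °C with THP-1 NF-κB-Lucia reporter cells (20,000 cells/well) in antibiotic-free RPMI 1640/10% FBS, then stimulated with 10 ng/mL human TNFα overnight (16-18 h). Secreted luciferase in supernatant was read by luminescence; IC50 from 4-parameter logistic fits.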

SMILES | Kd [1] | IC50 [2]
CN1CC(=O)N[C@@H](Cc2c[nH]c3ccccc23)C(=O)N[C@H](C(N)=O)CSCC(=O)N[C@@H](CCCCN)C(=O)N[C@@H](Cc2ccc(O)cc2)C(=O)N[C@@H](CO)C(=O)N[C@@H](Cc2c[nH]c3ccccc23)C(=O)N2CCC[C@@H]2C(=O)N[C@@H](CCCNC(N)=O)C(=O)N[C@@H](Cc2ccncc2)C(=O)N[C@@H](Cc2c[nH]c3ccccc23)C(=O)N[C@@](C)(CO)C(=O)N[C@@H](Cc2ccc(C(=O)O)cc2)C(=O)N[C@@H](Cc2ccc(O)cc2)C1=O [SEQ ID NO. 256] ({CH2CO}-KYSW[dP][Cit][4Pal]W[αMeS][Phe(4-COOH)]Y[Sar]WC-NH2; thioether N-14) | 1.4 nM | 6.1 nM
CCCC[C@@H]1NC(=O)CSC[C@@H](C(N)=O)NC(=O)[C@H]([C@@H](C)c2c[nH]c3c(OC)cccc23)NC(=O)CN(C)C(=O)[C@H](Cc2ccc(O)cc2)NC(=O)[C@H](Cc2ccc(C(=O)O)cc2)NC(=O)[C@](C)(CO)NC(=O)[C@H](Cc2c[nH]c3c(Cl)cccc23)NC(=O)[C@H](Cc2ccncc2)NC(=O)[C@H](CC(N)=O)NC(=O)[C@H](CCC(=O)O)N(C)C(=O)[C@H](Cc2c[nH]c3ncccc23)NC(=O)[C@H](CO)NC(=O)[C@H]([C@H](O)c2ccccc2)NC1=O [SEQ ID NO. 259] ({CH2CO}-[Nle][Phe(3R-OH)]S[Trp(7-aza)][NMeE]N[4Pal][Trp(7-Cl)][αMeS][Phe(4-COOH)]Y[Sar][Trp(βS-Me,7-OMe)]C-NH2; thioether N-14) | 0.15 nM | 1.9 nM
C[C@H]1C(=O)N[C@@H](CC(N)=O)C(=O)N[C@@H](Cc2ccncc2)C(=O)N[C@@H](Cc2c[nH]c3ccccc23)C(=O)N[C@@](C)(CO)C(=O)N[C@@H](Cc2ccc(C(=O)O)cc2)C(=O)N[C@@H](CCCNC(=N)N)C(=O)N(C)CC(=O)N[C@@H](Cc2c[nH]c3ccccc23)C(=O)N[C@H](C(N)=O)CSCC(=O)N[C@@H](CCc2ccccc2)C(=O)N[C@@H](Cc2ccc(O)cc2)C(=O)N[C@@H](CO)C(=O)N[C@@H](Cc2c[nH]c3ccccc23)C(=O)N1C [SEQ ID NO. 260] ({CH2CO}-[hPhe]YSW[NMeA]N[4Pal]W[αMeS][Phe(4-COOH)]R[Sar]WC-NH2; thioether N-14) | 6 nM | 50.1 nM
CCCC[C@@H]1NC(=O)CSC[C@@H](C(N)=O)NC(=O)[C@H]([C@@H](C)c2c[nH]c3c(OC)cccc23)NC(=O)CN(C)C(=O)[C@H](Cc2ccc(O)cc2)NC(=O)[C@H](Cc2ccc(C(=O)O)cc2)NC(=O)[C@](C)(CO)NC(=O)[C@H](Cc2c[nH]c3c(Cl)cccc23)NC(=O)[C@H](Cc2ccncc2)NC(=O)[C@H](CC(N)=O)NC(=O)[C@H]2C[C@@H](O)CN2C(=O)[C@H](Cc2c[nH]c3ncccc23)NC(=O)[C@@H]2CNCCN2C(=O)[C@H](Cc2ccncc2)NC1=O [SEQ ID NO. 261] ({CH2CO}-[Nle][4Pal][Pip(4-aza)][Trp(7-aza)][d(cisHyp)]N[4Pal][Trp(7-Cl)][αMeS][Phe(4-COOH)]Y[Sar][Trp(βS-Me,7-OMe)]C-NH2; thioether N-14) | 0.2 nM | 2.7 nM
CCCC[C@@H]1NC(=O)[C@@H]2CC[C@@H](C2)NC(=O)[C@H]([C@@H](C)c2c[nH]c3c(OC)cccc23)NC(=O)CN(C)C(=O)[C@H](Cc2ccc(O)cc2)NC(=O)[C@H](Cc2ccc(C(=O)O)cc2)NC(=O)[C@](C)(CO)NC(=O)[C@H](Cc2c[nH]c3c(Cl)cccc23)NC(=O)[C@H](Cc2ccncc2)NC(=O)[C@H](CC(N)=O)NC(=O)[C@H](CCC(=O)O)N(C)C(=O)[C@H](Cc2c[nH]c3c(Cl)cccc23)NC(=O)[C@@H]2CNCCN2C(=O)[C@H](Cc2ccncc2)NC1=O [SEQ ID NO. 262] (cyclo([4Pal][Trp(7-Cl)][αMeS][Phe(4-COOH)]Y[Sar][Trp(βS-Me,7-OMe)][X1][Nle][4Pal][Pip(4-aza)][Trp(7-Cl)][NMeE]N)) | 0.24 nM | 1.2 nM
C[C@H]1C(=O)N[C@@H](CC(N)=O)C(=O)N[C@@H](Cc2ccncc2)C(=O)N[C@@H](Cc2c[nH]c3ccccc23)C(=O)N[C@@](C)(CO)C(=O)N[C@@H](Cc2ccc(C(=O)O)cc2)C(=O)N[C@@H](Cc2ccc(O)cc2)C(=O)N(C)CC(=O)N[C@@H](Cc2c[nH]c3ccccc23)C(=O)N[C@H](C(N)=O)CSCC(=O)N[C@@H](CCc2ccccc2)C(=O)N[C@@H](Cc2ccc(O)cc2)C(=O)N[C@@H](CO)C(=O)N[C@@H](Cc2c[nH]c3c(F)cccc23)C(=O)N1C [SEQ ID NO. 263] ({CH2CO}-[hPhe]YS[Trp(7-F)][NMeA]N[4Pal]W[αMeS][Phe(4-COOH)]Y[Sar]WC-NH2; thioether N-14) | 1.6 nM | 4.7 nM
CCCC[C@@H]1NC(=O)[C@@H]2CC[C@@H](C2)NC(=O)[C@H]([C@@H](C)c2c[nH]c3c(OC)cccc23)NC(=O)CN(C)C(=O)[C@H](Cc2ccc(O)cc2)NC(=O)[C@H](Cc2ccc(C(=O)O)cc2)NC(=O)[C@](C)(CO)NC(=O)[C@H](Cc2c[nH]c3c(Cl)cccc23)NC(=O)[C@H](Cc2ccncc2)NC(=O)[C@H](CC(N)=O)NC(=O)[C@H]2CC(F)(F)CN2C(=O)[C@H](Cc2c[nH]c3ccccc23)NC(=O)[C@@H]2CNCCN2C(=O)[C@H](Cc2ccncc2)NC1=O [SEQ ID NO. 266] (cyclo([4Pal][Trp(7-Cl)][αMeS][Phe(4-COOH)]Y[Sar][Trp(βS-Me,7-OMe)][X1][Nle][4Pal][Pip(4-aza)]W[dPro(4,4-F2)]N)) | 0.06 nM | 0.9 nM
CCCC[C@@H]1NC(=O)[C@H]2CC[C@H](C2)NC(=O)[C@H]([C@@H](C)c2c[nH]c3c(OC)cccc23)NC(=O)CN(C)C(=O)[C@H](Cc2ccc(O)cc2)NC(=O)[C@H](Cc2ccc(C(N)=O)cc2)NC(=O)[C@](C)(CO)NC(=O)[C@H](Cc2c[nH]c3c(Cl)cccc23)NC(=O)[C@H](Cc2ccc(C(=O)O)cc2)NC(=O)[C@H](CC(N)=O)NC(=O)[C@H](CCC(=O)O)N(C)C(=O)[C@H](Cc2c[nH]c3ccccc23)NC(=O)[C@@H]2CC[C@@H](O)CN2C(=O)[C@H](Cc2ccncc2)NC1=O [SEQ ID NO. 267] (cyclo([4Pal][Pip(5R-OH)]W[NMeE]N[Phe(4-COOH)][Trp(7-Cl)][αMeS][Phe(4-CONH2)]Y[Sar][Trp(βS-Me,7-OMe)][X13][Nle])) | 0.14 nM | 1.7 nM
CCCC[C@@H]1NC(=O)[C@H]2C[C@@H](CNC(=O)[C@H]([C@@H](C)c3c[nH]c4c(OC)cccc34)NC(=O)CN(C)C(=O)[C@H](Cc3ccc(O)cc3)NC(=O)[C@H](Cc3ccc(C(=O)O)cc3)NC(=O)[C@](C)(CO)NC(=O)[C@H](Cc3c[nH]c4c(Cl)cccc34)NC(=O)[C@H](Cc3ccncc3)NC(=O)[C@H](CC(N)=O)NC(=O)[C@H](CCC(=O)O)N(C)C(=O)[C@H](Cc3c[nH]c4ccccc34)NC(=O)[C@@H]3CNCCN3C(=O)[C@H](Cc3ccncc3)NC1=O)C2 [SEQ ID NO. 268] (cyclo([4Pal][Trp(7-Cl)][αMeS][Phe(4-COOH)]Y[Sar][Trp(βS-Me,7-OMe)][cBu(1-CO,cis-3-CH2NH)][Nle][4Pal][Pip(4-aza)]W[NMeE]N)) | 0.27 nM | 2 nM
CCCC[C@@H]1NC(=O)CSC[C@@H](C(N)=O)NC(=O)[C@H]([C@@H](C)c2c[nH]c3c(OC)cccc23)NC(=O)CN(C)C(=O)[C@H](Cc2ccc(O)cc2)NC(=O)[C@H](Cc2ccc(C(=O)O)cc2)NC(=O)[C@](C)(CO)NC(=O)[C@H](Cc2c[nH]c3c(Cl)cccc23)NC(=O)[C@H](Cc2ccncc2)NC(=O)[C@H](CC(N)=O)NC(=O)[C@H](CCC(=O)O)N(C)C(=O)[C@H](Cc2c[nH]c3ccccc23)NC(=O)[C@@H]2CC[C@@H](C)CN2C(=O)[C@H](Cc2ccncc2)NC1=O [SEQ ID NO. 272] ({CH2CO}-[Nle][4Pal][X2]W[NMeE]N[4Pal][Trp(7-Cl)][αMeS][Phe(4-COOH)]Y[Sar][Trp(βS-Me,7-OMe)]C-NH2; thioether N-14) | 0.1 nM | 2.6 nM
C[C@@]1(CO)NC(=O)[C@H](Cc2c[nH]c3ncccc23)NC(=O)[C@H](Cc2ccncc2)NC(=O)[C@H](CC(N)=O)NC(=O)[C@H]2CCCN2C(=O)[C@H](Cc2ccnc3ccccc23)NC(=O)[C@H](CO)NC(=O)[C@H](Cc2ccncc2)NC(=O)[C@H](CCC(N)=O)NC(=O)CSC[C@@H](C(N)=O)NC(=O)[C@H](Cc2c[nH]c3cccc(Cl)c23)NC(=O)[C@@H]2CCCN2C(=O)[C@H](Cc2ccc(O)cc2)NC(=O)[C@H](Cc2ccc(C(=O)O)cc2)NC1=O [SEQ ID NO. 278] ({CH2CO}-Q[4Pal]S[X10][dP]N[4Pal][Trp(7-aza)][αMeS][Phe(4-COOH)]YP[Trp(4-Cl)]C-NH2; thioether N-14) | 12.8 nM | 54.5 nM
